Measured values published in ChEMBL document CHEMBL4229526, “Quinoxaline derivatives as potential antitrypanosomal and antileishmanial agents” (Bioorg Med Chem, 2018).

How the values were obtained:
Leishmania donovani [1] = assay: Antileishmanial activity against Leishmania donovani MHOM/SD/62/1S-CL2D LdBOB amastigotes harboring eGFP infected in human THP1 cells assessed as reduction in number of amastigotes per cell after 96 hrs by DAPI staining based microscopic analysis; format: functional, organism-based; conditions: THP-1, 96 h
Trypanosoma brucei = assay: Antitrypanosomal activity against Trypanosoma brucei Lister 427 bloodstream forms after 48 hrs by resazurin dye based fluorescence assay; format: functional, organism-based; conditions: Lister 427, 48 h
Leishmania donovani [2] = assay: Antileishmanial activity against Leishmania donovani MHOM/SD/62/1S-CL2D LdBOB amastigotes harboring eGFP infected in human THP1 cells assessed as reduction in infected cells after 96 hrs by DAPI staining based microscopic analysis; format: functional, organism-based; conditions: THP-1, 96 h
Trypanosoma cruzi [3] = assay: Antitrypanosomal activity against Trypanosoma cruzi Tulahuen trypomastigote forms infected in monkey LLC-MK2 cells after 24 hrs by CellTiter-Glo luminescent cell viability assay; format: functional, organism-based; conditions: LLC-MK2, 24 h
Trypanosoma cruzi [4] = assay: Antitrypanosomal activity against Trypanosoma cruzi Tulahuen amastigote forms infected in rat H9c2 cells assessed as reduction in infected cells after 72 hrs by DRAQ5 DNA dye based confocal microscopic analysis; format: functional, organism-based; conditions: H9c2, 72 h
THP-1 = assay: Cytotoxicity against human THP1 cells infected with Leishmania donovani MHOM/SD/62/1S-CL2D LdBOB amastigotes harboring eGFP assessed as reduction in cell number after 96 hrs by DAPI staining based microscopic analysis; conditions: THP-1, 96 h
[5] = Cytotoxicity against human HepG2 cells after 48 hrs by CellTiter-Glo cell viability assay; format: cell-based
Leishmania donovani [6] = assay: Antileishmanial activity against Leishmania donovani MHOM/SD/62/1S-CL2D LdBOB axenic amastigotes harboring eGFP after 72 hrs by resazurin dye based fluorescence assay; format: functional, organism-based
H9c2 = assay: Cytotoxicity against rat H9c2 cells infected with Trypanosoma cruzi Tulahuen amastigote forms assessed as reduction in cell number after 72 hrs by DRAQ5 DNA dye based confocal microscopic analysis; conditions: H9c2, 72 h
Trypanosoma cruzi [7] = assay: Antitrypanosomal activity against Trypanosoma cruzi Tulahuen amastigote forms infected in rat H9c2 cells assessed as reduction in amastigote number per cell after 72 hrs by DRAQ5 DNA dye based confocal microscopic analysis; format: functional, organism-based; conditions: H9c2, 72 h
Leishmania donovani [8] = assay: Potency index, ratio of amphotericin B IC50 to test compound IC50 for Leishmania donovani MHOM/SD/62/1S-CL2D LdBOB axenic amastigotes harboring eGFP; format: functional
Leishmania donovani [9] = assay: Potency index, ratio of miltefosine IC50 to test compound IC50 for Leishmania donovani MHOM/SD/62/1S-CL2D LdBOB axenic amastigotes harboring eGFP; format: functional

| SMILES | IC50 (Leishmania donovani [1]) [µM] | IC50 (Trypanosoma brucei) [µM] | IC50 (Leishmania donovani [2]) [µM] | IC50 (Trypanosoma cruzi [3]) [µM] | IC50 (Trypanosoma cruzi [4]) [µM] | IC50 (THP-1) [µM] | CC50 at 48 h [5] [µM] | IC50 (Leishmania donovani [6]) [µM] | IC50 (H9c2) [µM] | IC50 (Trypanosoma cruzi [7]) [µM] | Ratio IC50 (Leishmania donovani [8]) | Ratio IC50 (Leishmania donovani [9]) |
| --- | --- | --- | --- | --- | --- | --- | --- | --- | --- | --- | --- | --- |
| COc1ccc2nc(S(C)(=O)=O)c(NCC(C)C)nc2c1 | > 50 | 31.6 | > 50 | 44 | 31.6 | > 50 | 79.4 | > 50 | 31.6 | 31.6 | – | – |
| Cc1ccc(-c2nc3cc(Cl)c(Cl)cc3nc2-c2ccccc2)cc1 | > 50 | 19.9 | > 50 | > 50 | 15.8 | > 50 | > 100 | > 50 | > 50 | 10 | – | – |
| C[S+]([O-])c1nc2ccc(Cl)cc2nc1NC1CCCCC1 (stereo unspecified) | 31.6 | 6.31 | 31.6 | 0.74 | 5.01 | 31.6 | 15.8 | 10 | 3.16 | 3.98 | – | – |
| CS(=O)(=O)c1ccc(-c2nc3ccc(Br)cc3nc2-c2ccc(Cl)cc2)cc1 | 2.51 | 1.26 | 3.98 | 0.06 | 2 | 2 | 2 | 0.32 | 1.26 | 2 | 5.3 | 26.3 |
| CS(=O)(=O)c1nc2ccc(Cl)cc2nc1NC1CCCCC1 | 12.6 | 2.51 | 10 | 0.4 | 7.94 | 6.31 | 5.01 | 3.98 | 3.98 | 5.01 | – | – |
| COc1ccc2nc(S(C)(=O)=O)c(NCCC(C)C)nc2c1 | > 50 | 25.1 | > 50 | > 50 | 19.9 | 39.8 | 50.1 | > 50 | 31.6 | 15.8 | – | – |
| CCCCNc1nc2ccc(OC)cc2nc1S(C)(=O)=O | 25.1 | 25.1 | 31.6 | 8.86 | 19.9 | 12.6 | 19.9 | 12.6 | 15.8 | 19.9 | – | – |
| COc1ccc2nc(-c3ccc(S(C)(=O)=O)cc3)c(-c3ccc(Cl)cc3)nc2c1 | 19.9 | 10 | 19.9 | 4.21 | 25.1 | 12.6 | 25.1 | 7.94 | 10 | 19.9 | – | – |
| COc1ccc2nc(-c3ccc(Cl)cc3)c(-c3ccc(S(C)(=O)=O)cc3)nc2c1 | 12.6 | 19.9 | 10 | 1.14 | 10 | 7.94 | 5.01 | 2.51 | 5.01 | 7.94 | – | – |
| COc1ccc2nc(-c3ccc(Cl)cc3)c(-c3ccc([S+](C)[O-])cc3)nc2c1 (stereo unspecified) | 12.6 | 3.98 | 12.6 | 1.04 | 12.6 | 12.6 | 7.94 | 3.16 | 6.31 | 10 | – | – |
| CS(=O)(=O)c1ccc(-c2nc3ccc(Cl)cc3nc2-c2ccc(Cl)cc2)cc1 | 5.01 | 2.51 | 5.01 | 0.09 | 2 | 1.58 | 2 | 0.32 | 1.58 | 2 | 5.3 | 26.3 |
| CCCCNc1nc2cc(Cl)ccc2nc1S(C)(=O)=O | 7.94 | 6.31 | 7.94 | 0.96 | 10 | 5.01 | 6.31 | 3.16 | 5.01 | 7.94 | – | – |
| Clc1ccc2nc(-c3ccccc3)c(-c3ccccc3)nc2c1 | > 50 | 25.1 | > 50 | > 50 | 19.9 | > 50 | > 100 | > 50 | > 50 | 15.8 | – | – |
| COc1ccc2nc(S(C)(=O)=O)c(NCCO)nc2c1 | > 50 | 39.8 | > 50 | 0.77 | > 50 | > 50 | > 100 | > 50 | > 50 | > 50 | – | – |
| CS(=O)(=O)c1ccc(-c2nc3ccccc3nc2-c2ccc(Cl)cc2)cc1 | 10 | 10 | 10 | 0.7 | 12.6 | 10 | 10 | 3.16 | 5.01 | 10 | – | – |
| COc1ccc2nc(-c3ccc(-c4ccccc4)cc3)c(-c3ccc(S(C)(=O)=O)cc3)nc2c1 | > 50 | 31.6 | > 50 | 42.4 | 19.9 | 39.8 | > 100 | > 50 | 25.1 | 31.6 | – | – |
| CCCCNc1nc2cc(OC)ccc2nc1S(C)(=O)=O | > 50 | 25.1 | > 50 | 41.8 | 39.8 | > 50 | > 100 | > 50 | 31.6 | 25.1 | – | – |
| COc1ccc2nc(NC3CCCCC3)c([S+](C)[O-])nc2c1 (stereo unspecified) | 6.31 | 19.9 | 7.94 | 7.74 | 12.6 | 10 | 12.6 | 7.94 | 5.01 | 10 | – | – |
| C[S+]([O-])c1ccc(-c2nc3ccc(Cl)cc3nc2-c2ccc(Cl)cc2)cc1 (stereo unspecified) | 3.98 | 0.63 | 3.16 | 0.1 | 2 | 1.58 | 1.58 | 0.32 | 1.58 | 1.58 | 5.3 | 26.3 |
